Results as given in PMC11766267 (International Journal of Molecular Sciences, 2025).

system: HCT-116; assay: MTT cytotoxicity assay, HCT-116; type: cell-based; details: Homo sapiens, 24 h treatment, mean ± SD of triplicate
Experimental: (§1) Subsequently, 100 µL of dimethyl sulfoxide was introduced to dissolve the insoluble formazan.

SMILES | IC50 [µM]
CCOc1ccc(/C=C/C(=O)c2ccccc2)cc1 [Compound 4f, (E)-3-(4-Ethoxyphenyl)-1-phenylprop-2-en-1-one] | 57.6 ± 3.3
O=C(/C=C/c1ccccc1OCc1ccccc1)c1ccccc1 [Compound 4g, (E)-3-(2-(Benzyloxy)phenyl)-1-phenylprop-2-en-1-one] | 54 ± 3
O=C(/C=C/c1cccc(OCc2ccccc2)c1)c1ccccc1 [Compound 4h, (E)-3-(3-(Benzyloxy)phenyl)-1-phenylprop-2-en-1-one] | 46.8 ± 2.7
O=C(/C=C/c1ccc(OCc2ccccc2)cc1)c1ccccc1 [Compound 4i, (E)-3-(4-(Benzyloxy)phenyl)-1-phenylprop-2-en-1-one] | > 100
COc1cccc(C(=O)/C=C/c2ccccc2)c1 [Compound 4j, (E)-1-(3-Methoxyphenyl)-3-phenylprop-2-en-1-one] | 24.6 ± 1.7
COc1cccc(C(=O)/C=C/c2ccc(Cl)cc2)c1 [Compound 4k, (E)-3-(4-Chlorophenyl)-1-(3-methoxyphenyl)prop-2-en-1-one] | > 100
COc1ccc(/C=C/C(=O)c2cccc(OC)c2)cc1 [Compound 4l, (E)-1-(3-Methoxyphenyl)-3-(4-methoxyphenyl) prop-2-en-1-one] | 84 ± 4.2

system: MDA-MB-231; assay: MTT cytotoxicity assay, MDA-MB-231; type: cell-based; details: Homo sapiens, 24 h treatment, mean ± SD of triplicate
Experimental: as §1

SMILES | IC50 [µM]
CCOc1ccc(/C=C/C(=O)c2ccccc2)cc1 [Compound 4f, (E)-3-(4-Ethoxyphenyl)-1-phenylprop-2-en-1-one] | 46.1 ± 2.4
O=C(/C=C/c1ccccc1OCc1ccccc1)c1ccccc1 [Compound 4g, (E)-3-(2-(Benzyloxy)phenyl)-1-phenylprop-2-en-1-one] | 59.2 ± 3.5
O=C(/C=C/c1cccc(OCc2ccccc2)c1)c1ccccc1 [Compound 4h, (E)-3-(3-(Benzyloxy)phenyl)-1-phenylprop-2-en-1-one] | 53.8 ± 3.3
O=C(/C=C/c1ccc(OCc2ccccc2)cc1)c1ccccc1 [Compound 4i, (E)-3-(4-(Benzyloxy)phenyl)-1-phenylprop-2-en-1-one] | > 100
COc1cccc(C(=O)/C=C/c2ccccc2)c1 [Compound 4j, (E)-1-(3-Methoxyphenyl)-3-phenylprop-2-en-1-one] | 29.3 ± 1.9
COc1cccc(C(=O)/C=C/c2ccc(Cl)cc2)c1 [Compound 4k, (E)-3-(4-Chlorophenyl)-1-(3-methoxyphenyl)prop-2-en-1-one] | > 100
COc1ccc(/C=C/C(=O)c2cccc(OC)c2)cc1 [Compound 4l, (E)-1-(3-Methoxyphenyl)-3-(4-methoxyphenyl) prop-2-en-1-one] | 91.7 ± 4.5

system: HeLa; assay: MTT cytotoxicity assay, HeLa; type: cell-based; details: Homo sapiens, 24 h treatment, mean ± SD of triplicate
Experimental: as §1

SMILES | IC50 [µM]
CCOc1ccc(/C=C/C(=O)c2ccccc2)cc1 [Compound 4f, (E)-3-(4-Ethoxyphenyl)-1-phenylprop-2-en-1-one] | 49.6 ± 2.8
O=C(/C=C/c1ccccc1OCc1ccccc1)c1ccccc1 [Compound 4g, (E)-3-(2-(Benzyloxy)phenyl)-1-phenylprop-2-en-1-one] | 36.5 ± 2.4
O=C(/C=C/c1cccc(OCc2ccccc2)c1)c1ccccc1 [Compound 4h, (E)-3-(3-(Benzyloxy)phenyl)-1-phenylprop-2-en-1-one] | 25.6 ± 1.8
O=C(/C=C/c1ccc(OCc2ccccc2)cc1)c1ccccc1 [Compound 4i, (E)-3-(4-(Benzyloxy)phenyl)-1-phenylprop-2-en-1-one] | > 100
COc1cccc(C(=O)/C=C/c2ccccc2)c1 [Compound 4j, (E)-1-(3-Methoxyphenyl)-3-phenylprop-2-en-1-one] | 34.9 ± 2.2
COc1cccc(C(=O)/C=C/c2ccc(Cl)cc2)c1 [Compound 4k, (E)-3-(4-Chlorophenyl)-1-(3-methoxyphenyl)prop-2-en-1-one] | > 100
COc1ccc(/C=C/C(=O)c2cccc(OC)c2)cc1 [Compound 4l, (E)-1-(3-Methoxyphenyl)-3-(4-methoxyphenyl) prop-2-en-1-one] | 88.8 ± 4.6

system: MCF-7; assay: MTT cytotoxicity assay, MCF-7; type: cell-based, human; details: 24 h treatment, mean ± SD of triplicate
Experimental: as §1

SMILES | IC50 [µM]
O=C(/C=C/c1ccc(OCc2ccccc2)cc1)c1ccccc1 [Compound 4i, (E)-3-(4-(Benzyloxy)phenyl)-1-phenylprop-2-en-1-one] | 85.5 ± 4.3

same assay, conditions: Homo sapiens, MCF7, 24 h, 24 h treatment, mean ± SD of triplicate

SMILES | IC50 [µM]
CCOc1ccc(/C=C/C(=O)c2ccccc2)cc1 [Compound 4f, (E)-3-(4-Ethoxyphenyl)-1-phenylprop-2-en-1-one] | 35.3 ± 2.1
O=C(/C=C/c1ccccc1OCc1ccccc1)c1ccccc1 [Compound 4g, (E)-3-(2-(Benzyloxy)phenyl)-1-phenylprop-2-en-1-one] | 48.4 ± 2.6
O=C(/C=C/c1cccc(OCc2ccccc2)c1)c1ccccc1 [Compound 4h, (E)-3-(3-(Benzyloxy)phenyl)-1-phenylprop-2-en-1-one] | 42.1 ± 2.4
O=C(/C=C/c1ccc(OCc2ccccc2)cc1)c1ccccc1 [Compound 4i, (E)-3-(4-(Benzyloxy)phenyl)-1-phenylprop-2-en-1-one] | > 100
COc1cccc(C(=O)/C=C/c2ccccc2)c1 [Compound 4j, (E)-1-(3-Methoxyphenyl)-3-phenylprop-2-en-1-one] | 18.8 ± 1.5
COc1cccc(C(=O)/C=C/c2ccc(Cl)cc2)c1 [Compound 4k, (E)-3-(4-Chlorophenyl)-1-(3-methoxyphenyl)prop-2-en-1-one] | > 100
COc1ccc(/C=C/C(=O)c2cccc(OC)c2)cc1 [Compound 4l, (E)-1-(3-Methoxyphenyl)-3-(4-methoxyphenyl) prop-2-en-1-one] | 75.4 ± 3.8

system: not listed separately; assay: MTT cytotoxicity assay, normal cell line WI-38; type: cell-based, human; details: human, WI-38 cells (normal human lung fibroblasts), normal (non-cancer) cell line, 24 h treatment
Experimental: as §1

SMILES | IC50 at 24 h [µM]
CCOc1ccc(/C=C/C(=O)c2ccccc2)cc1 [Compound 4f, (E)-3-(4-Ethoxyphenyl)-1-phenylprop-2-en-1-one] | 64.7 ± 3.6
O=C(/C=C/c1ccccc1OCc1ccccc1)c1ccccc1 [Compound 4g, (E)-3-(2-(Benzyloxy)phenyl)-1-phenylprop-2-en-1-one] | 27.8 ± 1.9
O=C(/C=C/c1cccc(OCc2ccccc2)c1)c1ccccc1 [Compound 4h, (E)-3-(3-(Benzyloxy)phenyl)-1-phenylprop-2-en-1-one] | 83.4 ± 4.2
O=C(/C=C/c1ccc(OCc2ccccc2)cc1)c1ccccc1 [Compound 4i, (E)-3-(4-(Benzyloxy)phenyl)-1-phenylprop-2-en-1-one] | > 100
COc1cccc(C(=O)/C=C/c2ccccc2)c1 [Compound 4j, (E)-1-(3-Methoxyphenyl)-3-phenylprop-2-en-1-one] | 78.2 ± 3.9
COc1cccc(C(=O)/C=C/c2ccc(Cl)cc2)c1 [Compound 4k, (E)-3-(4-Chlorophenyl)-1-(3-methoxyphenyl)prop-2-en-1-one] | > 100
COc1ccc(/C=C/C(=O)c2cccc(OC)c2)cc1 [Compound 4l, (E)-1-(3-Methoxyphenyl)-3-(4-methoxyphenyl) prop-2-en-1-one] | 16.2 ± 1.3

system: HCT-116, MDA-MB-231, HeLa, and MCF-7; assay: MTT cytotoxicity assay, ranges stated over several cell lines; type: cell-based; details: Homo sapiens, HCT-116, MDA-MB-231, HeLa, MCF-7; range; read-out: IC50 values, range over the cancer cell lines tested
Experimental: as §1

SMILES | IC50 [µM]
CCOc1ccc(/C=C/C(=O)c2ccccc2)cc1 [Compound 4f, (E)-3-(4-Ethoxyphenyl)-1-phenylprop-2-en-1-one] | 23.5 to 74.5
O=C(/C=C/c1ccccc1OCc1ccccc1)c1ccccc1 [Compound 4g, (E)-3-(2-(Benzyloxy)phenyl)-1-phenylprop-2-en-1-one] | 23.5 to 74.5
O=C(/C=C/c1cccc(OCc2ccccc2)c1)c1ccccc1 [Compound 4h, (E)-3-(3-(Benzyloxy)phenyl)-1-phenylprop-2-en-1-one] | 23.5 to 74.5
COc1ccc(/C=C/C(=O)c2cccc(OC)c2)cc1 [Compound 4l, (E)-1-(3-Methoxyphenyl)-3-(4-methoxyphenyl) prop-2-en-1-one] | 61.9 to 91.7
